These results are taken from article PMC11061149, “Protein mimetic 2D FAST rescues alpha synuclein aggregation mediated early and post disease Parkinson’s phenotypes” (Nature Communications, 2024).

The target of data set [1] is T1, α-Synuclein (αS) aggregation (Homo sapiens, UniProt P37840).
T1 construct: made in house; host or cells: E. coli BL21(DE3)
Put plainly: Thioflavin T (ThT) dye-based αS aggregation assay (de novo). As to conditions: for ThT intensity relative to Synuclein alone (=1), Average / ThT intensity relative to Synuclein alone (=1), Trial 1-3: 100 µM αS, four days; for remaining activity at 100 µM: 96 h, pH 6.5, 100 μM αS, 1×PBS pH 6.5, four days, ligand:αS equimolar, read-out: ThT signal/intensity relative to αS alone (100%). It is filed as biochemical. As for the experimental part:
We used a 2D FAST approach in OPs to identify potent antagonists of the aggregation of αS. In this approach, we start with a library of monopyridyls with different functional groups. The library of monopyridyls was synthesized using 2-chloro-6-methyl-3-nitropyridine as a common precursor, which was treated with primary alcohols with diverse side chain functionalities via a one-pot reaction (Fig. 1B, a and see Supplementary information for synthetic details). […] We selected the side chains containing hydrophobic, polar, positively charged, and negatively charged functional groups, which mimic the side chains of the amino acids (Fig. 1C). […] The monopyridyl library was screened against the aggregation of 100 μM αS at an equimolar ratio using Thioflavin T (ThT) dye-based aggregation assay (Fig. 1B, b). […] The chloro-dipyridyl was reacted with a library of primary amines/thiols to synthesize a library of dipyridyls (Fig. 1B, e) using a one-pot reaction. […] However, a few dipyridyls required column chromatography to separate them from the starting material side chains because of their very high boiling point (7 out of 21 dipyridyls required column, Supplementary Fig. 1). […]
Aggregation Kinetics were measured according to a previously described protocol. […] The solutions were placed in a ThermoMixer (Eppendorf, Hamberg, Germany) at 37 °C with constant shaking at 1300 rpm (rpm). At different time points, 5 μL aliquots of each αS solution were added to 95 μL PBS containing 50 μM Thioflavin T (ThT) dye in a Costar black 96 well plate (Corning Inc., Kennebunk, ME). ThT fluorescence intensity was measured (λex = 450 nm and λem = 490 nm) on an Infinite M200PRO plate reader (Tecan, Männedorf, Switzerland), and plotted against time to give a sigmoidal curve typical of amyloid aggregation. For the single point ThT aggregation, 100 μM αS, in the absence and presence of ligands, was aggregated under the described conditions and the ThT fluorescence was reported at 96 h. The reported ThT intensity values are the average of each experiment conducted in triplicate, with the error bars representing the standard deviations or standard error of the mean (s.e.m.) as described in the main manuscript.

The target of the next data set is T2, αS aggregation (Homo sapiens, UniProt P37840).
T2 construct: made in house; host or cells: E. coli BL21(DE3)
In words: SDS-PAGE gel shift assay of soluble and insoluble αS fractions. It is filed as biochemical. The note with it: for αS band intensity, Total: individual trials. The source says:
The inhibition of αS aggregation by NS41 was also confirmed by TEM images, which show an abundance (Supplementary Fig. 3a) and low amount (Supplementary Fig. 3b) of αS fibers in the absence and presence of NS41, respectively. We used SDS-PAGE (Sodium dodecyl sulfate polyacrylamide gel electrophoresis) as a complementary assay to validate ThT results and to further characterize the antagonist activity of the monopyridyls against αS aggregation. We used a total of four monopyridyls with varying antagonist activity against αS aggregation for the SDS-PAGE assay. The solutions of αS (±monopyridyls) were centrifuged and the soluble and insoluble fractions were subjected to SDS-PAGE analysis as reported earlier (Fig. 2d, Supplementary Fig. 4a, see details in methods section). The band intensities of the gels in SDS-PAGE assay were quantified using ImageJ software. In the absence of ligands, ~12% of αS was found in the soluble fraction and the rest was found in the insoluble fraction (Fig. 2d, Supplementary Fig. 4a, b). In the presence of NS41 at molar ratios of 1:1 and 2:1 (NS41:αS), 48% and 73% of αS protein were found in the soluble fraction, respectively, and the rest of αS protein was found in the insoluble fraction (Fig. 2d, Supplementary Fig. 4a, b). […] The antagonist activity of the monopyridyls corroborated well from both ThT and the SDS-PAGE assays (Fig. 2a–d, Supplementary Fig. 4a, b). The higher the antagonist activity of monopyridyls against αS aggregation, the lower the ThT intensity and the higher the amount of αS remained in the soluble fraction (Fig. 2a–d, Supplementary Fig. 4a, b). […] It is important to note that NS41 contains a carboxyl (COOH) functional group side chain. […] We have also shown in that work that the foldamer binds to the N-terminus of αS because of its negatively charged COOH functional group interaction with the positively charged lysine residues of αS[24]. […] Additionally, we have also shown that the OPs with the COOH functional group are very effective inhibitors of aggregation of other amyloid proteins that contain lysine amino acid via the formation of salt bridges[30]–[34].
An αS solution (100 µM) was prepared in PBS with or without ligands and shaken ([…], 37 °C) until the fluorescence plateaued, as observed using the ThT aggregation assay, indicative of the aggregation of αS as a control (four days for most experiments unless otherwise mentioned). The solutions were separated into soluble and insoluble fractions by centrifugation at 22,000 × g for 20 min. The fractions were diluted in 2×Laemmli protein sample loading buffer (Containing 2.1% SDS, Bio-rad, Hercules, CA), boiled at 95 °C for 5 min, and ran on a 12% Mini-PROTEAN precast protein gel (Bio-rad, Hercules, CA). The gel was visualized using ChemiDoc MP Imaging System (Bio-rad, Hercules, CA) and band intensity was quantified using Image Lab image acquisition and analysis software (Bio-rad, Hercules, CA). Densitometry values were averaged from three technical replicates and reported with the error bars representing their standard deviations.
On the technique in general: A gel shift assay detects complexes by their altered migration in electrophoresis.

The target in a further data set is T3, αS fibers (Homo sapiens, UniProt P37840).
T3 construct: made in house; host or cells: E. coli BL21(DE3)
In words: Transmission electron microscopy (TEM) of αS solutions. It counts as biochemical. As to conditions: 100 µM αS aggregated for four days with ligand. As for the experimental part:
Transmission Electron Microscopy was used to visualize protein assemblies after aggregation experiments as previously described. Briefly, aliquots (5 μL) of αS solutions (with or without ligands) were applied on glow-discharged carbon-coated 300-mesh copper grids for 2 min and dried using Kimwipes (Kimberly-Clark, Irving, TX). The copper grids were negatively stained for 1 min with uranyl acetate (0.75%, w/v). The micrographs were taken on an FEI Tecnai G2 Biotwin TEM at 80 kV accelerating voltages.

The test system of another data set is UA196 worms. Put plainly: Motility assay of UA196 worms in the presence of dopamine and NS163. It counts as in vivo, C. elegans. As to conditions: for Motility of worms, UA196+Dopamine: individual trials. The protocol: This motility assay was performed exactly as the previous assay with slight adjustment in the preparation of the plates for the treatment of UA196 worms. For this assay, the only difference is the 24 well plates were prepared with 2 mM dopamine (referred to as PLATE 5) and both 2 mM dopamine and 50 µM NS163 (referred to as PLATE 6). To prepare PLATE 5, the NGM media containing 75 µM FUDR was autoclaved and poured in NGM plates (2 mL total liquid). After 12 h, the NGM plates were seeded with 350 µL of OP50 (with OD = 0.5 at 600 nm) at 20 °C. After 12 h, 2 mM dopamine dissolved in M9 buffer (total volume = 300 µL) was spotted atop the NGM plates at 20 °C. To prepare PLATE 6, the NGM media containing 75 µM FUDR was autoclaved and poured in NGM plates (2 mL total liquid). After 12 h, the NGM plates were seeded with 350 µL of OP50 (with OD = 0.5 at 600 nm) at 20 °C. After 12 h, NS163 (50 µM, stock conc. = […] in DMSO) and dopamine (2 mM in M9 buffer) were dissolved in M9 buffer (total volume = 300 µL) and were spotted atop the NGM plates at 20 °C. The NGM plates treated with dopamine and NS163 and dopamine were placed in sterile laminar flow hood at 20 °C for 1 h. The NGM plates treated with dopamine and NS163 and dopamine were prepared and used within 24 h.
There were six conditions for this experiment: (1) N2 worms, (2) N2 worms treated with 2 mM dopamine, (3) UA196 worms, (4) UA196 worms treated with 2 mM dopamine, (5) UA196 worms treated with 50 µM NS163, and (6) UA196 worms treated with 2 mM dopamine and 50 µM NS163. For each condition, four biological replicates were performed, and each biological replicate consisted of four technical replicates (four wells). For each condition, the data were expressed as mean and the error bars report the s.e.m. (n = 4 independent experiments and each n consisted of a total of four technical replicates).

Values joined by “and” are separate entries in the source; they are usually repeats but may differ in a detail not shown here. Equal values may be shown once.

For `Cc1ccc([N+](=O)[O-])c(OCC(=O)O)n1` [NS41], the “ThT signal relative to αS alone (100%)” value in data set [1] (100 μM αS, 1×PBS pH 6.5, NS41/αS 2:1) was 17%. Moreover, the figures for the “ThT intensity relative to Synuclein alone (=1), Average” value in data set [1] (equimolar) and in data set [1] (ligand 2 mole Eq.) were 0.2889 and 0.162, respectively. Also, the “ThT intensity relative to Synuclein alone (=1), Trial 1-3” value is 0.2946 and 0.2756 and 0.2964 in data set [1] (equimolar, individual trials); 0.1784 and 0.1666 and 0.1411 in data set [1] (ligand 2 mole Eq., individual trials). Moreover, the remaining activity at 100 µM in data set [1] was 29%. The “αS protein found in the soluble fraction” value on αS aggregation (100 µM αS, four days, NS41:αS 2:1) came to 73%; at αS aggregation (100 µM αS, four days, ligand:αS 1:1) it was 48%. The “αS band intensity, Total, Average” value at αS aggregation (sheet S4B, ligand 1 eq.) is 100; on αS aggregation (sheet S4B, ligand 2 eq.) it was 100. The “αS band intensity, Total” value is 95 and 102.5 (2×) on αS aggregation (sheet S4B, ligand 1 eq.); 96 and 102 (2×) on αS aggregation (sheet S4B, ligand 2 eq.). In addition, on αS fibers, the “αS fibers seen in TEM images, in words” value is given as “low amount”.
As for `NCCc1ccc(O)c(O)c1` [dopamine], the “Motility of worms, UA196+Dopamine” value is 146 and 123 and 134 and 157 in the data set on UA196 worms (Day 4); 129 and 128 and 126 and 106 in the data set with UA196 worms (Day 5); 99 and 108 and 117 and 122 with UA196 worms (Day 6); 108 and 102 and 112 and 99 in the data set with UA196 worms (Day 7); 108 and 103 and 97 and 100 in the data set with UA196 worms (Day 8); 93 and 88 and 92 and 89 in the data set with UA196 worms (Day 9). In addition, the “Motility of worms, UA196+Dopamine” value is 87 and 88 and 92 and 89 in the data set on UA196 worms (Day 10); 75 and 62 and 83 and 87 in the data set on UA196 worms (Day 11); 72 and 83 and 69 and 65 in the data set on UA196 worms (Day 12); 51 and 78 and 67 and 62 in the data set on UA196 worms (Day 13). In the data set on UA196 worms (dopamine 2 mM, day two and four), the “motility of UA196 worms treated with dopamine, in words” value was “much higher motility”.
Take `Cc1ccc(NC(=O)c2ccc([N+](=O)[O-])c(NCC3CCCCC3)n2)c(OCC(=O)O)n1` [NS55]: the “ThT fluorescence intensity, Average” value in data set [1] (100 µM αS + equimolar ligand, aggregation profile Fig. 2h, time 0 hr) was 638.333; in data set [1] (Fig. 2h profile, time 12 hr), 699.667; in data set [1] (Fig. 2h profile, time 24 hr), 689.333; in data set [1] (Fig. 2h profile, time 48 hr), 722.667; in data set [1] (Fig. 2h profile, time 72 hr), 793; in data set [1] (Fig. 2h profile, time 96 hr) it was 631.333. For the same molecule, the “ThT fluorescence intensity, Average” value in data set [1] (Fig. 2h profile, time 144 hr) is 658.333; in data set [1] (Fig. 2h profile, time 192 hr), 603.333; in data set [1] (Fig. 2h profile, time 300 hr), 570.333. In addition, the “attenuation of the ThT signal of αS aggregation” value in data set [1] (100 μM αS, equimolar) came to 96%. Moreover, the entries for the “ThT intensity relative to Synuclein alone (=1), Average” value in data set [1] (equimolar) and in data set [1] (substoichiometric αS:ligand 1:0.5) were 0.04101 and 0.7474, respectively. The “ThT intensity relative to Synuclein alone (=1), Trial 1-3” value in data set [1] (equimolar, individual trials) was 0.05227 and 0.03887 and 0.03187; in data set [1] (substoichiometric αS:ligand 1:0.5, individual trials), 0.775 and 0.733 and 0.7343. Besides, the remaining activity at 100 µM in data set [1] was determined as 4%. Further, the “Relative ThT intensity of αS aggregation, Average” value in data set [1] (sheet S5A, Synuclein alone about 1) worked out at 0.04101. Moreover, in data set [1] (sheet S5A, Synuclein alone about 1, individual trials), the “Relative ThT intensity of αS aggregation” value was 0.05227 and 0.03887 and 0.03187. The “amount of αS in the insoluble fraction” value at αS aggregation (100 µM αS, four days, equimolar) amounted to 26%. Also, at αS aggregation (sheet S5B), the “αS band intensity, Total, Average” value came out at 100. Also, at αS aggregation (sheet S5B), the “αS band intensity, Total” value is 95.6 and 105.4 and 99. The “distribution of αS between soluble and insoluble fraction, in words” value at αS aggregation (substoichiometric ratio αS:ligand 1:0.5) was “a significant amount of αS protein was found in the insoluble form”. Besides, at αS fibers, the “αS fibers seen in TEM images, in words” value is on record as “no”.
